Test system: dogs in surgical anesthesia
Test: anesthetic requirement to maintain surgical anesthesia in dogs
Assay type: in vivo, dog
Details: FDP n=104 vs controls n=103

Question: `O=C(COP(=O)(O)O)[C@@H](O)[C@H](O)[C@H](O)COP(=O)(O)O` [FDP, fructose-1,6-diphosphate] was tested. Which anesthetic required did it give?
Answer: twice as much anesthetic

From patent US5039665A, “Use of fructose-1,6-diphosphate for treating myocardial infarction” (priority 1990, dated 1991)
